Laboratory results taken from patent US11932658B2 (BRISTOL-MYERS SQUIBB COMPANY, priority 2016, dated 2024).

Target: T1, PAR4 (Homo sapiens, UniProt Q96RI0)
T1 construct: expressed in transfected cells; host or cells: HEK293 PAR4 Clone 1.2A (BMS Arctic ID 383940)
T1 sequence (Q96RI0 18-385): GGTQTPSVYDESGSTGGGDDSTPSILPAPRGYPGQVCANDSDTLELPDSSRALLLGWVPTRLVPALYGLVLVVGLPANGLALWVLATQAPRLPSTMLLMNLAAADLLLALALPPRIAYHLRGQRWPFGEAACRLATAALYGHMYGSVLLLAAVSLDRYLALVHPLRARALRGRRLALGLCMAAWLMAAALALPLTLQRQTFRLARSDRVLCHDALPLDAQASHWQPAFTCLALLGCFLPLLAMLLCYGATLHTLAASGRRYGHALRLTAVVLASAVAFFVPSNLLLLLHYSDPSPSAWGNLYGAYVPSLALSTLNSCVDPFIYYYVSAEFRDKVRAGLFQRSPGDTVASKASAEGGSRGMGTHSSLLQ
Test: PAR4 FLIPR assay (antagonism of agonist peptide-induced calcium mobilization)
Assay type: cell-based
How it was run: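 Antagonism was taken as block of calcium mobilization evoked by the agonist peptide H-Ala-Phe(4-F)-Pro-Gly-Trp-Leu-Val-Lys-Asn-[…]-NH2, added after 30 min room-temperature compound preincubation in dye-loaded PAR4-transfected HEK293 cells (endogenous PAR1). Fluorescence was read on FDSS, with compound addition alone used as the agonist counter-screen; values come from 11-point concentration-response curves.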

Compound	IC50
COc1cnc2c(-c3nc4ccc5c(c4s3)OC[C@H](COC(=O)Nc3cnc(OCCO)nc3)O5)cc(Cl)cc2c1 [Example 287, (R)-(2-(6-chloro-3-methoxyquinolin-8-yl)-7,8-dihydro-[1,4]dioxino[2′,3′:3,4]benzo[1,2-d]thiazol-7-yl)methyl (2-(2-hydroxyethoxy)pyrimidin-5-yl)carbamate]	1.6 nM
COc1cnc2c(-c3nc4c(Cl)cc5c(c4s3)CC(COC(=O)Nc3ccc(C)nc3)O5)cc(C)cc2n1 (stereo not drawn) [Example 19, (4-chloro-2-(2-methoxy-7-methylquinoxalin-5-yl)-7,8-dihydrobenzofuro[5,4-d]thiazol-7-yl)methyl (6-methylpyridin-3-yl)carbamate]	2.6 nM
COC(=O)NCC1Cc2c(ccc3nc(-c4cc(C)cc5nc(OC)cnc45)sc23)O1 (stereo not drawn) [Example 191, Methyl ((2-(2-methoxy-7-methylquinoxalin-5-yl)-7,8-dihydrobenzofuro[5,4-d]thiazol-7-yl)methy 1)carbamate]	7.1 nM
COc1cnc2c(-c3nc4cc(F)c5c(c4s3)C[C@@H](CNC(=O)OCC(F)(F)F)O5)cc(C)cc2n1 [Example 249, (S)-2,2,2-trifluoroethyl ((5-fluoro-2-(2-methoxy-7-methylquinoxalin-5-yl)-7,8-dihydrobenzofuro[5,4-d]thiazol-7-yl)methyl)carbamate]	1 nM
COc1cnc2c(-c3nc4ccc5c(c4s3)C[C@@H](CNC(=O)O[C@H]3CCOC3)O5)cc(C)cc2n1 [Example 236, (S)-tetrahydrofuran-3-yl (((S)-2-(2-methoxy-7-methylquinoxalin-5-yl)-7,8-dihydrobenzofuro[5,4-d]thiazol-7-yl)methyl)carbamate]	2.7 nM
COC(=O)NC[C@]1(C)Cc2c(c(F)cc3nc(-c4cc(C)cc5nc(OC)cnc45)sc23)O1 [Example 240, (S)-methyl ((5-fluoro-2-(2-methoxy-7-methylquinoxalin-5-yl)-7-methyl-7,8-dihydrobenzofuro[5,4-d]thiazol-7-yl)methyl)carbamate]	32 nM
COc1ccc(NC(=O)OC[C@H]2COc3c(cc(C(F)F)c4nc(-c5cc(C)cc6nc(OC)cnc56)sc34)O2)cn1 [Example 81, (R)-(4-(difluoromethyl)-2-(2-methoxy-7-methylquinoxalin-5-yl)-7,8-dihydro-[1,4]dioxino[2′,3′:3,4]benzo[1,2-d]thiazol-7-yl)methyl (6-methoxypyridin-3-yl)carbamate]	39 nM
COc1cnc2c(-c3nc4cc(F)c5c(c4s3)C[C@](C)(CO)O5)cc(C)cc2n1 [Example 181, (R)-(5-fluoro-2-(2-methoxy-7-methylquinoxalin-5-yl)-7-methyl-7,8-dihydrobenzofuro[5,4-d]thiazol-7-yl)methanol]	52 nM
COc1cnc2c(-c3nc4cc(F)c5c(c4s3)[C@H](C)[C@@H](CNC(=O)OCC(C)C)O5)cc(C)cc2n1 [Example 256, Isobutyl (((7S,8S)-5-fluoro-2-(2-methoxy-7-methylquinoxalin-5-yl)-8-methyl-7,8-dihydrobenzofuro[5,4-d]thiazol-7-yl)methyl)carbamate]	0.7 nM
COc1cnc2c(-c3nc4c(C)cc5c(c4s3)OCC(COC(=O)Nc3cccnc3)O5)cc(CO)cc2n1 (stereo not drawn) [Example 90, (2-(7-(hydroxymethyl)-2-methoxyquinoxalin-5-yl)-4-methyl-7,8-dihydro-[1,4]dioxino[2′,3′:3,4]benzo[1,2-d]thiazol-7-yl)methyl pyridin-3-ylcarbamate]	2.7 nM
COc1cnc2c(-c3nc4cc(F)c5c(c4s3)C[C@H](CNC(=O)Cc3ccccc3)O5)cc(C)cc2n1 [Example 217, (R)-N-((5-fluoro-2-(2-methoxy-7-methylquinoxalin-5-yl)-7,8-dihydrobenzofuro[5,4-d]thiazol-7-yl)methyl)-2-phenylacetamide]	120 nM
COc1cnc2c(-c3nc4c(C)cc5c(c4s3)OC[C@H](COC(=O)Nc3ccc(-n4cnc(C)n4)nc3)O5)cc(C)cc2n1 [Example 55, (R)-(2-(2-methoxy-7-methylquinoxalin-5-yl)-4-methyl-7,8-dihydro-[1,4]dioxino [2′,3′:3,4]benzo[1,2-d]thiazol-7-yl)methyl (6-(3-methyl-1H-1,2,4-triazol-1-yl)pyridin-3-yl)carbamate]	21 nM
COc1cnc2c(-c3nc4c(Cl)cc5c(c4s3)CC(COC(=O)Nc3ccc(C)nc3)O5)cc(CO)cc2n1 (stereo not drawn) [Example 148, (4-chloro-2-(7-(hydroxymethyl)-2-methoxyquinoxalin-5-yl)-7,8-dihydrobenzofuro[5,4-d]thiazol-7-yl)methyl (6-methylpyridin-3-yl)carbamate]	0.7 nM
COc1cnc2c(-c3nc4cc(F)c5c(c4s3)C[C@](C)(COC(=O)Nc3cccc(C#N)c3)O5)cc(C)cc2n1 [Example 184, (R)-(5-fluoro-2-(2-methoxy-7-methylquinoxalin-5-yl)-7-methyl-7,8-dihydrobenzofuro[5,4-d]thiazol-7-yl)methyl (3-cyanophenyl)carbamate]	1.8 nM
COc1cnc2c(-c3nc4ccc5c(c4s3)CC(C)(CO)O5)cc(C)cc2n1 (stereo not drawn) [Example 171, (2-(2-methoxy-7-methylquinoxalin-5-yl)-7-methyl-7,8-dihydrobenzofuro[5,4-d]thiazol-7-yl)methanol]	45 nM
COc1cnc2c(-c3cc4c5c(ccc4o3)O[C@@H](COC(=O)Nc3ccc(C)nc3)CO5)cc(C)cc2n1 [Example 11, (R)-(8-(2-methoxy-7-methylquinoxalin-5-yl)-2,3-dihydro-[1,4]dioxino[2,3-e]benzofuran-3-yl)methyl (6-methylpyridin-3-yl)carbamate]	1.3 nM
COc1cnc2c(-c3nc4cc(F)c5c(c4s3)C[C@@](C)(CNC(=O)OC(C)(C)C)O5)cc(C)cc2n1 [Example 242, (S)-tert-butyl ((5-fluoro-2-(2-methoxy-7-methylquinoxalin-5-yl)-7-methyl-7,8-dihydrobenzofuro[5,4-d]thiazol-7-yl)methyl)carbamate]	9.3 nM
COc1cnc2c(-c3nc4cc(F)c5c(c4s3)C[C@@](C)(COC(=O)Nc3cccnc3)O5)cc(C)cc2n1 [Example 175, (S)-(5-fluoro-2-(2-methoxy-7-methylquinoxalin-5-yl)-7-methyl-7,8-dihydrobenzofuro[5,4-d]thiazol-7-yl)methyl pyridin-3-ylcarbamate]	19 nM
COc1cnc2c(-c3nc4c(F)cc5c(c4s3)OC[C@H](COC(=O)Nc3ccncc3)O5)cc(C)cc2n1 [Example 73, (R)-(4-fluoro-2-(2-methoxy-7-methylquinoxalin-5-yl)-7,8-dihydro-[1,4]dioxino[2′,3′:3,4]benzo[1,2-d]thiazol-7-yl)methyl pyridin-4-ylcarbamate]	12 nM
COc1cnc2c(-c3nc4cc(F)c5c(c4s3)C[C@@H](CNC(=O)OCc3ccccc3)O5)cc(C)cc2n1 [Example 211, (S)-benzyl ((5-fluoro-2-(2-methoxy-7-methylquinoxalin-5-yl)-7,8-dihydrobenzofuro[5,4-d]thiazol-7-yl)methyl)carbamate]	1.3 nM
COc1cnc2c(-c3nc4c(C)cc5c(c4s3)OC[C@H](COC(=O)Nc3cncc(F)c3)O5)cc(C)cc2n1 [Example 42, (R)-(2-(2-methoxy-7-methylquinoxalin-5-yl)-4-methyl-7,8-dihydro-[1,4]dioxino[2′,3′:3,4]benzo[1,2-d]thiazol-7-yl)methyl (5-fluoropyridin-3-yl)carbamate]	50 nM
COc1cnc2c(-c3nc4cc(F)c5c(c4s3)C[C@@H](CNC(=O)OC3CCOCC3)O5)cc(C)cc2n1 [Example 245, (S)-tetrahydro-2H-pyran-4-yl ((5-fluoro-2-(2-methoxy-7-methylquinoxalin-5-yl)-7,8-dihydrobenzofuro[5,4-d]thiazol-7-yl)methyl)carbamate]	24 nM
COc1cnc2c(-c3nc4ccc5c(c4s3)C[C@](C)(CO)O5)cc(C)cc2n1 (single isomer, unassigned) [Example 188]	130 nM
COC(=O)[C@@H]1Cc2c(ccc3nc(-c4cc(C)cc5nc(OC)cnc45)sc23)O1 [Example 156, (S)-methyl 2-(2-methoxy-7-methylquinoxalin-5-yl)-7,8-dihydrobenzofuro[5,4-d]thiazole-7-carboxylate]	28 nM
COc1cnc2c(-c3nc4c(F)cc5c(c4s3)OC[C@H](COC(=O)Nc3ccc(F)nc3)O5)cc(C)cc2n1 [Example 71, (R)-(4-fluoro-2-(2-methoxy-7-methylquinoxalin-5-yl)-7,8-dihydro-[1,4]dioxino[2′,3′:3,4]benzo[1,2-d]thiazol-7-yl)methyl (6-fluoropyridin-3-yl)carbamate]	2.9 nM
COc1cnc2c(-c3nc4c(C)cc5c(c4s3)OCC(COC(=O)Nc3ccc(C(F)(F)F)nc3)O5)cc(C)cc2n1 (stereo not drawn) [Example 131, (2-(2-methoxy-7-methylquinoxalin-5-yl)-4-methyl-7,8-dihydro-[1,4]dioxino[2′,3′:3,4]benzo[1,2-d]thiazol-7-yl)methyl (6-(trifluoromethyl)pyridin-3-yl)carbamate]	2 nM
COc1cncc(NC(=O)OC[C@H]2Cc3c(c(F)cc4nc(-c5cc(C)cc6nc(OC)cnc56)sc34)O2)c1 [Example 168, (R)-(5-fluoro-2-(2-methoxy-7-methylquinoxalin-5-yl)-7,8-dihydrobenzofuro[5,4-d]thiazo 1-7-yl)methyl (5-methoxypyridin-3-yl)carbamate]	5 nM
